According to patent US20170112789A1, “INTRAVENOUS BACLOFEN AND METHODS OF TREATMENT” (Allaysis, LLC, priority 2015, published 2017):

Tests used:
[1] = Pharmacokinetics and bioavailability of oral vs intravenous baclofen, randomized open-label 2-way crossover study (Example 3); format: in vivo, human; conditions: for Cmax: single dose
Experimental: (§1) Twelve healthy human volunteers were recruited. The volunteers were medication free for 48 hours before, during, and 24 hours after the administration of the study drug.
(§2) The 12 volunteers participated in a randomized, open-label, 2-way crossover study to compare the pharmacokinetics and bioavailability of oral baclofen with an intravenous baclofen formulation. The oral formulation was a 10 mg baclofen tablet. A single intravenous dose of 5 mg was administered over 15 minutes, using the commercially available 2 mg/mL intrathecal baclofen formulation (Lioresal Intrathecal). Blood samples (6 mL) for the measurement of plasma concentrations of baclofen were collected in blood collection tubes containing K2 ethylenediaminetetraacetic acid at the following times: prior to dosing; at 5, 15, and 30 minutes; and at 1, 2, 4, 6, 8, 10, 12, and 24 hours after drug administration.
Study plasma samples were prepared by adding 50 μL of a 500 μg/mL levetiracetam solution (internal standard) to 250 μL of K2 ethylenediaminetetraacetic acid (EDTA) human plasma. Baclofen and the internal standard were extracted from plasma by precipitating the protein with methanol and drying it under nitrogen at approximately 40° C. The dried residues were reconstituted in 300 μL of a mobile phase consisting of 20 mM ammonium acetate-methanol (75:25) solution. After 1 minute of vortex mixing, the reconstituted sample solution was filtered and injected onto the high-performance liquid chromatograph-mass spectrometer system. Standard curve samples over a range of 20 to 400 ng/mL baclofen and quality control samples containing 30 (low), 80 (medium), and 240 ng/mL (high) baclofen were prepared and analyzed in triplicate along with the study samples. The assay was linear over the range 20-400 ng/mL with a lower limit of quantification of 20 ng/mL.
Baclofen concentration-time data were analyzed using a noncompartmental pharmacokinetic approach with Phoenix software (version 6.2; Pharsight Corporation, Mountain View, Calif.). The terminal rate constant (λz) was determined from the slope of the terminal log-linear portion of the plasma concentration-time curve, and the terminal half-life (t1/2) was calculated as In 2/(λz). Maximum plasma concentrations (Cmax) and time to maximum concentration (Tmax) were determined by direct observation of the data. The area under the concentration-time curve to the last nonzero plasma concentration (Clast) that was above half the lower limit of quantification (10 ng/mL) was calculated by the trapezoidal rule and reported as AUClast The area under the concentration-time curve extrapolated to infinity (AUC0-∞) was calculated as AUClast+(Clast/λz). Mean and standard deviation values for the parameters were also obtained using the descriptive statistics tool in Phoenix version 6.2. A paired t-test was used to determine if statistical differences existed in log normalized, dose-adjusted area under the curve between oral and intravenous arms.

healthy human volunteers = test: Tolerability of the intravenous formulation in the crossover study (Example 3); format: in vivo
Experimental: as §1, §2

[2] = Pharmacokinetics of oral and intravenous baclofen at clinically relevant doses, dose escalation crossover study (Example 4); format: in vivo, human; conditions: for Cmax / half-life / bioavailability: human, plasma
Experimental: (§3) Thirty-six healthy adults participated in the study.
(§4) The thirty-six subjects were enrolled in a randomized, open-label, cross over study to evaluate the safety profile and pharmacokinetics of oral and an investigational intravenous baclofen formulation at clinically relevant doses. Three cohorts of twelve subjects received single doses of baclofen: 7.5, 11.5 or 15 mg intravenously and 10, 15, or 20 mg taken orally with a 48 hour washout phase. The highest dosing cohort received an additional 15 mg extended (60 minute) infusion. Blood samples for baclofen pharmacokinetic analysis were collected pre-dose and at regular intervals over a 24 hour time period. Over this 24 hour period subjects were assessed for sedation, nystagmus and ataxia to evaluate clinical response. Maximum concentration (Cmax) and time to maximum concentration (Tmax) were determined by visual inspection. Noncompartmental pharmacokinetic analyses were used to estimate area under the curve (AUC), half life (t1/2), clearance (CL) and volume of distribution. Absolute bioavailability was calculated using dose normalized oral and intravenous AUCs. Dose proportionality was assessed using analysis of variance (ANOVA) and a power model. Bioequivalence was evaluated using Phoenix Software (Centara, Pharsight Corporation, Mountain View, Calif.).

healthy adults = test: Tolerability/safety (sedation, nystagmus, ataxia) in the dose escalation study (Example 4); format: in vivo, human; conditions: for subjects with asymptomatic nystagmus: 10 minute infusion, of twelve subjects
Experimental: as §3, §4

[3] = cited from earlier work
[4] = human, plasma, 5 mg IV, mean ± SD
[5] = human, plasma, 10 mg oral, mean ± SD
[6] = iv, 7.5 mg, IV 10 min infusion 7.5 mg, mean
[7] = iv, 11.5 mg, IV 10 min infusion 11.5 mg, mean
[8] = iv, 15 mg, IV 10 min infusion 15 mg, mean
[9] = iv, 15 mg, IV 60 min infusion 15 mg, mean

Compound: NCC(CC(=O)O)c1ccc(Cl)cc1 (racemic) [Baclofen, 4-amino-3-(4-chlorophenyl) butanoic acid]
- time point of observed maximum baclofen concentration ([1]; 5 mg IV formulation): 5 min
- AUC0-∞/Dose ([1]; 5 mg IV, mean ± SD): 141 ± 33 ng·h/mL/mg
- AUC0-∞/Dose ([1]; 10 mg oral, mean ± SD): 102 ± 23 ng·h/mL/mg
- T1/2 ([1]; 10 mg oral, mean ± SD): 4.03 ± 0.73 h
- half-life ([1]; human, plasma, iv, 5 mg, 5 mg IV, mean ± SD): 4.52 h
- bioavailability ([1]; human, plasma, oral, 10 mg, 10 mg oral tablet, absolute, vs 5 mg IV, mean ± SD): 74%
- half-life ([1]; human, plasma, po, 10 mg, 10 mg oral, mean ± SD): 4 h
- AUC(0-inf) [1, 4]: 707 ± 166 ng·h/mL
- AUC(0-t) [1, 4]: 593 ± 111 ng·h/mL
- AUC(0-inf) [1, 5]: 1020 ± 232 ng·h/mL
- AUC(0-t) [1, 5]: 878 ± 199 ng·h/mL
- Tmax ([1]; human, plasma, 10 mg oral, median (min, max)): 1 h
- Cmax ([1]; human, 5 mg IV over 15 minutes, plasma, mean ± SD, 12 volunteers): 310 ng/mL
- Cmax ([1]; human, 10 mg oral tablet, plasma, mean ± SD): 174 ng/mL
- tolerability of the intravenous formulation (healthy human volunteers; 5 mg IV over 15 minutes): well tolerated
- severity of treatment-emergent adverse events (healthy human volunteers; characterized by the investigator): mild in severity
- time for all subjects to return to baseline values after drug administration (healthy human volunteers; in vivo): ≤ 6 h
- Cmax ration ([2]; 15 mg intravenous infusion over 10 minutes vs oral): 263%
- Cmax ration ([2]; 15 mg intravenous infusion over 60 minutes vs oral): 149%
- dose proportionality of AUC ([2]; ANOVA and power model analysis): greater than proportional increase with dose
- AUC(0-inf) ([2]; IV 10 min infusion 7.5 mg, mean): 562 ng·h/mL
- AUC(0-inf) ([2]; IV 10 min infusion 11.5 mg, mean): 1186 ng·h/mL
- AUC(0-inf) ([2]; IV 10 min infusion 15 mg, mean): 1520 ng·h/mL
- AUC(0-inf) ([2]; IV 60 min infusion 15 mg, mean): 1447 ng·h/mL
- AUC(0-inf) ([2]; PO 10 mg, mean): 714 ng·h/mL
- AUC(0-inf) ([2]; PO 15 mg, mean): 1201 ng·h/mL
- AUC(0-inf) ([2]; PO 20 mg, mean): 1598 ng·h/mL
- bioequivalence of oral and intravenous doses ([2]; based on AUC and Cmax): bioequivalent based on AUC, but not based on Cmax
- dose proportionality of mean Cmax ([2]; both forms of administration, ANOVA and power model): increased proportionally with dose
- Cmax [2, 6]: 310 ng/mL
- half-life [2, 6]: 3.37 h
- Cmax [2, 7]: 524 ng/mL
- half-life [2, 7]: 4.97 h
- Cmax [2, 8]: 720 ng/mL
- half-life [2, 8]: 5.82 h
- Cmax [2, 9]: 382 ng/mL
- half-life [2, 9]: 6.22 h
- bioavailability ([2]; oral, data from all cohorts combined, read-out: mean bioavailability): 89%
- Cmax ([2]; po, 10 mg, PO 10 mg, mean): 124 ng/mL
- half-life ([2]; po, 10 mg, PO 10 mg, mean): 3.94 h
- Cmax ([2]; po, 15 mg, PO 15 mg, mean): 201 ng/mL
- half-life ([2]; po, 15 mg, PO 15 mg, mean): 4.65 h
- Cmax ([2]; po, 20 mg, PO 20 mg, mean): 255 ng/mL
- half-life ([2]; po, 20 mg, PO 20 mg, mean): 5.49 h
- bioavailability ([2]; po, data from all cohorts combined, read-out: absolute oral bioavailability, range): 42 to 132%
- bioavailability ([2]; PO 10 mg (cohort 1), mean, read-out: Bioavailability): 102%
- bioavailability ([2]; PO 15 mg (cohort 2), mean, read-out: Bioavailability): 80%
- bioavailability ([2]; PO 20 mg (cohort 3), mean, read-out: Bioavailability): 85%
- subjects with asymptomatic nystagmus (healthy adults; 7.5 mg): two
- subjects with asymptomatic nystagmus (healthy adults; 11.5 mg): six
- occurrence of nystagmus (healthy adults; 15 mg 60 minute infusion): not observed
- subjects with asymptomatic nystagmus (healthy adults; 15 mg): six
- ataxia (healthy adults; after the 20 mg oral dose): one subject experienced mild transient ataxia
- tolerability (healthy adults; all oral and IV doses): generally well tolerated
- sedation, changes from baseline (healthy adults; by route of administration or by dose): not statistically significant
- adverse effects (healthy adults; following both oral and intravenous doses): Mild, self-limited adverse effects
- solubility in water [3]: slightly soluble in water
